Consider 3 compounds from patent US9657047B2, “Crystallization of epirubicin hydrochloride” (MEDAC GESELLSCHAFT FÜR KLINISCHE SPEZIALPRÄPARATE MBH, priority 2011, dated 2017).

The data set can be described thus: test of thermal stability (storage at 40° C.). The format is physicochemical. To be noted: two weeks and three weeks; for decomposition on storage (thermal stability): crystals stored at 40° C. for one week. The method, then: The produced crystalline epirubicin hydrochloride was subjected to a test of thermal stability. For this purpose, the produced crystals were stored at a temperature of 40° C. for a time period of one week, two weeks, and three weeks. […] Instead, the crystals remained in unchanged form.
The epirubicin hydrochloride produced was subjected to a test of thermal stability. For this purpose, the epirubicin hydrochloride was stored at a temperature of 40° C. for a time period of one week, two weeks, and three weeks. Within this time frame, a thermal decomposition of epirubicin hydrochloride amplified with increasing storage period by two percent respectively was observed.

For `COc1cccc2c1C(=O)c1c(O)c3c(c(O)c1C2=O)C[C@@](O)(C(=O)CO)C[C@@H]3O[C@H]1C[C@H](N)[C@@H](O)[C@H](C)O1.Cl` [Comparison Example 1, epirubicin hydrochloride], the “thermal decomposition amplified with increasing storage period” value (stored at 40° C. for one week, increase per storage period) is listed as “two”.

On to `COc1cccc2c1C(=O)c1c(O)c3c(c(O)c1C2=O)C[C@@](O)(C(=O)CO)C[C@@H]3O[C@H]1C[C@H](N)[C@@H](O)[C@H](C)O1.Cl` [Example 1, epirubicin hydrochloride], for which the “decomposition on storage (thermal stability)” value is recorded as “no decomposition”.

On to `COc1cccc2c1C(=O)c1c(O)c3c(c(O)c1C2=O)C[C@@](O)(C(=O)CO)C[C@@H]3O[C@H]1C[C@H](N)[C@@H](O)[C@H](C)O1.Cl` [Example 2, epirubicin hydrochloride], for which the “decomposition on storage (thermal stability)” value is listed as “no decomposition”.
